# Experimental data taken from patent US8058437B2, “(Pyrroloquinoxalinyl) pyrazinecarbohydrazide-oxalic acid co-crystal for treatment of cancer and other diseases” (Novelix Pharmaceuticals, Inc., priority 2008, dated 2011).
# Like-named read-outs stand apart in the source and are kept apart here.
# What was measured:
# [1] = Salt formation experiments / physical characteristics of solid forms; assay type: physicochemical; settings: suitable for pharmaceutical formulation
# Method: Thus, a series of experiments was conducted to assess the preparation of NVX-144 salts of acids other than hydrochloric acid as possible novel compounds better suited to pharmaceutical preparations. […] As expected, NVX-144 base readily formed salts with strong organic acids.
# Although oxalic acid co-crystals are rare, Trask et al. have reported a co-crystal of caffeine with oxalic acid (see Trask et al., “Pharmaceutical Cocrystallization: Engineering a Remedy for Caffeine Hydration,” Crystal Growth & Design, 5, 1013-21 (2005)).
# Thus NVX-144 would not be expected to form a salt with oxalic acid, a relatively strong dicarboxylic acid.
# [2] = Pharmacokinetic experiments in rats (IV, oral suspension, oral solution); assay type: in vivo; settings: male, rat, plasma; for bioavailability: adjusted for dose, read-out: Bioavailability
# Method: The oral suspension formulation was prepared by suspending the test article in 5% PEG-200/95% of a 0.5% solution of methylcellulose. The concentration of the test article was such that a dosing volume of 10 mL/kg delivered the intended dose level. The oral solution formulations of NVX-144 and NVX-412 were prepared by dissolving the test article in 10% by volume dimethyl acetamide, followed by 60% by volume PEG-400, and then adding slowly a solution of 30% Captisol® in 50 mM lactic acid to provide the remaining 30% of volume. The concentration of the test article was such that a dosing volume of 10 mL/kg delivered the intended dose level. The IV formulation of NVX-412 was prepared by dissolving the test article in 10% by volume dimethyl acetamide, followed by 10% by volume PEG-400, and then adding slowly a solution of 10% Captisol® in 50 mM lactic acid to provide the remaining 80% of volume. The concentration of the test articles was such that a dosing volume of 2.5 mL/kg delivered the intended dose level. The doses administered were based on the body weight of each animal taken shortly before dosing. The formulations were used immediately after preparation.
# A total of 15 rats were assigned to the study. Five groups of three male rats each comprised the study. Each group was treated once by oral gavage or intravenous injection via the tail vein as specified in Table 3 below.
# The animals were fasted overnight prior to dosing and the feed returned approximately 2 hours post-dosing. The dose for each animal was based on the most recent body weight. Oral doses were administered by gavage. Animals received 10 mL/kg per single oral dose. Intravenous doses were administered by tail vein injection. The dose for each animal was based on the most recent body weight. Animals were dosed at 2.5 mL/kg per single intravenous dose.
# Blood was collected from the animals in Groups 1 through 5 for pharmacokinetic analysis. Approximately 0.3 mL of blood was collected in potassium EDTA tubes via the orbital plexus at four time points (30 minutes, 1 hour, 4 hours, and 8 hours post-dose) from each rat treated by the oral route, and the blood samples were processed to prepare plasma. Blood was collected at four time points (5 minutes, 30 minutes, 1 hour, and 2 hours post-dose) from each rat treated by the intravenous route, and the blood samples were processed to prepare plasma. Animals were terminated (without necropsy) following their final sample collection.
# The whole blood samples were centrifuged (˜1500×g) for a minimum of 10 minutes in a refrigerated centrifuge (set at ˜5° C.). Plasma was prepared and transferred within 30 minutes of blood collection/centrifugation to appropriately labeled tubes. The tubes were then frozen and stored in the dark at ≦−70° C. until analysis. The plasma samples were analyzed by LC-MS/MS to determine the plasma concentrations of NVX-144 and NVX-412. Pharmacokinetic analysis of the plasma concentration data was conducted using non-compartmental analysis with WinNonlin Version 4.1.
# [3] = iv, 5 mg/kg, IV 5 mg/kg, Mean of 3
# [4] = iv, 5 mg/kg, IV 5 mg/kg, individual animals
# [5] = oral, 20 mg/kg, Group 5, PO-Solution 20 mg/kg, Mean
# [6] = po, 20 mg/kg, Group 3, PO-Suspension 20 mg/kg, individual animals
# [7] = po, 20 mg/kg, Group 5, PO-Solution 20 mg/kg, Mean N=3
structure (smiles),measurement,setting,value
"O=C(NNc1nc2cc(F)ccc2n2cccc12)c1cnccn1.O=C(O)C(=O)O [NVX-412, N′-(7-fluoropyrrolo[1,2a]quinoxalin-4-yl)pyrazine-2-carbohydrazide oxalic acid co-crystal]",hydrate formation / stability,[1],forms stable mono- and di-hydrates
same,concentration at 0.083 h,[2]; [3],1840 ng/mL
same,concentration at 0.083 h,[2]; [4],1810 ng/mL
same,concentration at 0.5 h,"[2]; iv, 5 mg/kg, IV 5 mg/kg, 0.5 h, Mean of 3",477 ng/mL
same,concentration at 0.5 h,"[2]; iv, 5 mg/kg, IV 5 mg/kg, 0.5 h, individual animals",488 ng/mL
same,concentration at 1 h,"[2]; iv, 5 mg/kg, IV 5 mg/kg, 1 h, Mean of 3",273 ng/mL
same,concentration at 1 h,"[2]; iv, 5 mg/kg, IV 5 mg/kg, 1 h, individual animals",288 ng/mL
same,concentration at 2 h,[2]; [3],165 ng/mL
same,concentration at 2 h,[2]; [4],167 ng/mL
same,AUC,[2]; [3],1070 ng·h/mL
same,AUC(0-inf),[2]; [3],1310 ng·h/mL
same,clearance,[2]; [3],63.4 mL/min/kg
same,Cmax,"[2]; iv, 5 mg/kg, IV 5 mg/kg, Mean of 3, read-out: Cmax",1840 ng/mL
same,half-life,"[2]; iv, 5 mg/kg, IV 5 mg/kg, Mean of 3, read-out: T ½ (converted)",1 h
same,Tmax,"[2]; iv, 5 mg/kg, IV 5 mg/kg, Mean of 3, read-out: Tmax",0.083 h
same,Vd,"[2]; iv, 5 mg/kg, IV 5 mg/kg, Mean of 3, read-out: Vss",3.98 L/kg
same,AUC,[2]; [4],1070 ng·h/mL
same,AUC(0-inf),[2]; [4],1320 ng·h/mL
same,clearance,[2]; [4],63.3 mL/min/kg
same,Cmax,"[2]; iv, 5 mg/kg, IV 5 mg/kg, individual animals, read-out: Cmax",1810 ng/mL
same,half-life,"[2]; iv, 5 mg/kg, IV 5 mg/kg, individual animals, read-out: T ½ (converted)",1.01 h
same,Tmax,"[2]; iv, 5 mg/kg, IV 5 mg/kg, individual animals, read-out: Tmax",0.08 h
same,Vd,"[2]; iv, 5 mg/kg, IV 5 mg/kg, individual animals, read-out: Vss",3.96 L/kg
same,half-life,"[2]; iv, 5 mg/kg, administered intravenously, range over animals, read-out: terminal plasma half-life",0.93 to 1.15 h
same,concentration at 0.5 h,"[2]; oral, 20 mg/kg, Group 3, PO-Suspension 20 mg/kg, 0.5 hr, Mean",487 ng/mL
same,concentration at 0.5 h,"[2]; oral, 20 mg/kg, Group 3, PO-Suspension 20 mg/kg, 0.5 hr, individual animals",499 ng/mL
same,concentration at 1 h,"[2]; oral, 20 mg/kg, Group 3, PO-Suspension 20 mg/kg, 1 hr, Mean",525 ng/mL
same,concentration at 1 h,"[2]; oral, 20 mg/kg, Group 3, PO-Suspension 20 mg/kg, 1 hr, individual animals",525 ng/mL
same,concentration at 4 h,"[2]; oral, 20 mg/kg, Group 3, PO-Suspension 20 mg/kg, Mean",257 ng/mL
same,concentration at 4 h,"[2]; oral, 20 mg/kg, Group 3, PO-Suspension 20 mg/kg, individual animals",341 ng/mL
same,concentration at 8 h,"[2]; oral, 20 mg/kg, Group 3, PO-Suspension 20 mg/kg, Mean, only 2 replicates available",9.27 ng/mL
same,concentration at 0.5 h,"[2]; oral, 20 mg/kg, Group 5, PO-Solution 20 mg/kg, 0.5 hr, Mean",626 ng/mL
same,concentration at 0.5 h,"[2]; oral, 20 mg/kg, Group 5, PO-Solution 20 mg/kg, 0.5 hr, individual animals",732 ng/mL
same,concentration at 1 h,"[2]; oral, 20 mg/kg, Group 5, PO-Solution 20 mg/kg, 1 hr, Mean",601 ng/mL
same,concentration at 1 h,"[2]; oral, 20 mg/kg, Group 5, PO-Solution 20 mg/kg, 1 hr, individual animals",628 ng/mL
same,concentration at 4 h,[2]; [5],243 ng/mL
same,concentration at 4 h,"[2]; oral, 20 mg/kg, Group 5, PO-Solution 20 mg/kg, individual animals",259 ng/mL
same,concentration at 8 h,[2]; [5],16.2 ng/mL
same,AUC(0-inf),"[2]; po, 20 mg/kg, Group 3, PO-Suspension 20 mg/kg, Mean N=2",2310 ng·h/mL
same,half-life,"[2]; po, 20 mg/kg, Group 3, PO-Suspension 20 mg/kg, Mean N=2, read-out: T ½ (converted)",1.2 h
same,bioavailability,"[2]; po, 20 mg/kg, Group 3, PO-Suspension 20 mg/kg, Mean N=2, versus mean IV AUCINF",43.9%
same,AUC,"[2]; po, 20 mg/kg, Group 3, PO-Suspension 20 mg/kg, Mean N=3",2070 ng·h/mL
same,Cmax,"[2]; po, 20 mg/kg, Group 3, PO-Suspension 20 mg/kg, Mean N=3, read-out: Cmax",525 ng/mL
same,Tmax,"[2]; po, 20 mg/kg, Group 3, PO-Suspension 20 mg/kg, Mean N=3, read-out: Tmax",1 h
same,AUC,[2]; [6],2390 ng·h/mL
same,AUC(0-inf),[2]; [6],2410 ng·h/mL
same,Cmax,"[2]; po, 20 mg/kg, Group 3, PO-Suspension 20 mg/kg, individual animals, read-out: Cmax",525 ng/mL
same,half-life,"[2]; po, 20 mg/kg, Group 3, PO-Suspension 20 mg/kg, individual animals, read-out: T ½ (converted)",1.28 h
same,Tmax,"[2]; po, 20 mg/kg, Group 3, PO-Suspension 20 mg/kg, individual animals, read-out: Tmax",1 h
same,bioavailability,"[2]; po, 20 mg/kg, Group 3, PO-Suspension 20 mg/kg, individual animals, versus mean IV AUCINF",45.9%
same,AUC,[2]; [7],2250 ng·h/mL
same,AUC(0-inf),[2]; [7],2290 ng·h/mL
same,Cmax,"[2]; po, 20 mg/kg, Group 5, PO-Solution 20 mg/kg, Mean N=3, read-out: Cmax",643 ng/mL
same,half-life,"[2]; po, 20 mg/kg, Group 5, PO-Solution 20 mg/kg, Mean N=3, read-out: T ½ (converted)",1.4 h
same,Tmax,"[2]; po, 20 mg/kg, Group 5, PO-Solution 20 mg/kg, Mean N=3, read-out: Tmax",0.67 h
